Entries after “also recorded” stand apart in the source; their conditions may differ.
Target: T1, human serum albumin (Homo sapiens, UniProt P02768)
T1 construct: purchased Sigma, St. Louis, MO
Assay: Equilibrium dialysis of 14C-L-TRP binding to human serum albumin in presence of ligands (Scatchard plots)
Conditions: for effect on L-TRP binding to albumin: one molar equivalent of ligand; for effect on L-TRP binding capacity of albumin: second and third molar equivalents of ligand; for reduction of the affinity (Ka) of L-TRP for albumin: two moles of ligand per mole albumin, equilibrium dialysis, 37° C., pH 7.4
Experimental: Human serum albumin (Fraction V) was purchased from Sigma, St. Louis, MO. The protein was defatted with activated charcoal according to Chen, R. F. (1967), J. Biol. Chem 242: 173-181 and monomeric albumin purified as previously described in Soltys, B. J. and Hsia, J. C. (1977), J. Biol. Chem. 252: 4043-4048. Protein concentration was determined by absorption of ultraviolet light, assuming E279 nm^1% =5.30 according to Clark, P., Rachinsky, M. R. and Foster, J. F. (1962), J. Biol. Chem. 237: 2509-2513. The sodium salt of cis-parinaric acid was dissolved in 1×10^-4 Malbumin in Ringer's buffer. The Ringer's buffer contained 110 mM NaCl, 5 mM KCl, 1.2 mM MgSO4, 1.2 mM KH2 PO4 and 10 mM Na2 HPO4 at a pH of 7.4 at 37° C. L-tryptophan, stearate and bilirubin were also purchased from Sigma, St. Louis, MO. cis-parinaric acid was purchased from Molecular Probes Inc., Plano, TX. L-[side chain-3 -^14 C]-tryptophan (^14 C-L-TRP) was purchased from New England Nuclear, Boston, Mass. Fatty acids and bilirubin were dissolved in albumin solution essentially as previously described in Soltys, B. J. and Hsia, J. C. (1977), J. Viol. Chem. 252: 4043-4048. Briefly, fatty acid or bilirubin (sodium salt) in methanol was dried under vacuum in dim light to form a thin film in a small glass vial. The albumin solution was added to the vial and gently blended on a Vortex mixer until optically clear.
Equilibrium dialysis cells (approximately 200 μl total capacity) with injection/sampling ports were used. Dialysis membranes (Canlab, Toronto, Ont), previously boiled in distilled water, were placed on one half-cell and then the two half-cells were bolted together. 100 ul of albumin (1×10^-4 M), or its ligand complex was added to one side of the dialysis cells, while 100 μl of a solution of ^14 C-L-TRP was added to the other side.
The cells were sealed with tape and incubated with slight oscillation at 37±0.5° C. in a jacketed incubator (Model 3314, Forma Scientific, Marietta, OH). The cells contained total amount of L-TRP varying from 0.5 to 20 times the number of moles of albumin. After six hours incubation, 25 μl samples were drawn from the albumin side and the buffer side of each cell. These were counted in 6 ml plastic scintillation vials (Canlab) containing 5 ml Aquasol (New England Nuclear) in a liquid scintillation counter (LS 9000, Beckman, Irvine, CA). A quench curve was constructed to correct for quenching of counts by bilirubin.
The equation for the Scatchard plot is
where n is the number of binding sites and Ka is the apparent association constant. Thus the r-intercept is n and the r/c-intercept is nK (a measure of binding capacity), while the negative slope yields the Ka.

T1 sequence (P02768 25-609): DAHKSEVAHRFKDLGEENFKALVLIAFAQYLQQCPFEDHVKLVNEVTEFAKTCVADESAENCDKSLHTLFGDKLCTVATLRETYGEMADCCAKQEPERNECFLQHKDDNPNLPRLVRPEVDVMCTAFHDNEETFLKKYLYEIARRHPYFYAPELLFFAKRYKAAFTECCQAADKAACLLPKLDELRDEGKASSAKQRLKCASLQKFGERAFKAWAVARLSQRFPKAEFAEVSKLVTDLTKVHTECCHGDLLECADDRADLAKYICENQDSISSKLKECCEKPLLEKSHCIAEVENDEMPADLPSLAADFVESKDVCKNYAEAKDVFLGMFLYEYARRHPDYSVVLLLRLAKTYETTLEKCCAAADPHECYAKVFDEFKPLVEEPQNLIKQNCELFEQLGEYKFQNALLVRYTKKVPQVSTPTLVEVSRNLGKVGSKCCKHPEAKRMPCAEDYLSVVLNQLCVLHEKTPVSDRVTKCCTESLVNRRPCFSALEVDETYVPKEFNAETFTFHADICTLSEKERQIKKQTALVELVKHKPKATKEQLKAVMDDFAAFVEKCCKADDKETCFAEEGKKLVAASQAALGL

Row | SMILES | number of primary binding sites on human serum albumin (Scatchard plot without competing ligand (FIG. 1)) | effect on L-TRP binding to albumin | effect on L-TRP binding capacity of albumin | displacement of albumin-bound tryptophan (2:1 ligand-to-albumin ratio) | effect on specific (primary site) L-TRP binding capacity of albumin (4.0 moles of ligand per mole albumin) | inhibitory effect on L-TRP binding capacity of albumin (higher molar ratios (2.0 to 4.0) of ligand) | reduction of the affinity (Ka) of L-TRP for albumin [%]
1 | N[C@@H](Cc1c[nH]c2ccccc12)C(=O)O [L-TRP, L-tryptophan] | one | – | – | – | – | – | –
2 | C=CC1=C(C)/C(=C/c2[nH]c(Cc3[nH]c(/C=C4\NC(=O)C(C)=C4C=C)c(C)c3CCC(=O)O)c(CCC(=O)O)c2C)NC1=O [bilirubin, reference compound] | – | did not affect; also recorded: little effect | progressive inhibition | – | – | – | –
3 | CC\C=C/C=C/C=C/C=C\CCCCCCCC(=O)O [cis-parinaric acid, cis, trans, trans, cis-9,11,13,15-octadecatetraenoic acid] | – | strong inhibitory effect | abolished | up to 90% | completely blocked; also recorded: completely abolished | most effective | 80
4 | CCCCCCCCCCCCCCCCCC(=O)O [stearate, reference compound] | – | – | – | – | – | – | 20
